Measurements taken from BindingDB's records for doi:10.1016/j.bmc.2021.116498 (Kyushu University, 2021).
Numbered stars: 1 amine (or outer) side, 2 acyl side, 3 side chain; on linkers, the order of the positions; unused ones are H or OH. Square brackets hold non-standard residues; d marks the D form. Peptide text beside a SMILES is read from it. X2 = O=C([C@H](Cc1c(F)cc(F)c(F)c1F)N[*:1])[*:2]; X3 = O=C([C@H](Cc1cc(F)c(F)c(F)c1F)N[*:1])[*:2]; Cha = N[C@@H](CC1CCCCC1)C(=O)O

experiment: Activation of PAR-1 in human platelet-rich plasma assessed as induction of platelet aggregation by turbidimetric method

| EC50 [µM] | Compound |
| --- | --- |
| 99 | CC(C)C[C@H](NC(=O)[C@H](CC(C)C)NC(=O)[C@H](CC1CCCCC1)NC(=O)[C@@H](N)CO)C(=O)N[C@@H](CCCNC(=N)N)C(=O)N[C@@H](CC(N)=O)C(=O)N1CCC[C@H]1C(N)=O (H-S[Cha]LLRNP-NH2) |
| 8.9 | CC(C)C[C@H](NC(=O)[C@H](CC(C)C)NC(=O)[C@H](Cc1c(F)cc(F)c(F)c1F)NC(=O)[C@@H](N)CO)C(=O)N[C@@H](CCCNC(=N)N)C(=O)N[C@@H](CC(N)=O)C(=O)N1CCC[C@H]1C(N)=O (H-S[X2]LLRNP-NH2) |
| 50 | CC(C)C[C@H](NC(=O)[C@H](CC(C)C)NC(=O)[C@H](Cc1cc(F)c(F)c(F)c1F)NC(=O)[C@@H](N)CO)C(=O)N[C@@H](CCCNC(=N)N)C(=O)N[C@@H](CC(N)=O)C(=O)N1CCC[C@H]1C(N)=O (H-S[X3]LLRNP-NH2) |
| 3 | H-SFLLRNP-NH2 [1-{(S)-2-[(S)-2-((S)-2-{(S)-2-[(S)-2-((S)-2-Amino-3-hydroxy-propionylamino)-3-phenyl-propionylamino]-4-methyl-pentanoylamino}-4-methyl-pentanoylamino)-5-guanidino-pentanoylamino]-3-carbamoyl-propionyl}-pyrrolidine-2-carboxylic acid amide] |
